# Measurements from patent publication US5912330A, “Crystalline maltosyl glucoside, and its production and use” (Kabushiki Kaisha Hayashibara Seibutsu Kagaku Kenkyujo, priority 1994, dated 1999).
# Assays:
# [1] = Hygroscopicity: water content and appearance at 90.1% relative humidity; assay type: physicochemical; conditions: for Hygroscopicity and appearance: in words
# Experimental: About 1 g powder of hydrous crystalline maltosyl glucoside, anhydrous crystalline maltosyl glucoside or amorphous crystalline maltosyl glucoside was placed in a polyethylene vessel and allowed to stand in high humidity conditions of 90.1% relative humidity, and the changes of moisture content and appearance of these powders were observed and measured at a prescribed interval. Hydrous and anhydrous crystals, which were prepared by the methods of Experiment B-1, and amorphous crystal, which was prepared by dissolving hydrous crystal substance in deionized water and dried in vacuo to obtain a test sample.
# Solubility in water = assay type: physicochemical; conditions: 25° C. water
# Experimental: (8) Solubility (as anhydride)
# Up to about 163 g each hydrous and anhydrous crystals were respectively soluble in 100 ml of 25° C. water.
# mice = experiment: Acute toxicity in mice upon oral administration; assay type: in vivo; conditions: for mortality: maximum administrable dose
# Experimental: (§1) Hydrous and anhydrous crystalline maltosyl glucosides prepared by the method in Experiment B-1 were tested for acute toxicity in mice upon oral administration.
# [2] = Moisture adsorption / hygroscopicity of the products of the Examples; assay type: physicochemical
# [3] = Acute toxicity in mice upon oral administration; assay type: in vivo; conditions: mouse, in vivo
# Experimental: as §1
# [4] = Reducing power (DE) by Somogyi-Nelson method; assay type: physicochemical; conditions: dextrose equivalent
# Source text: For purifying these newly formed saccharides, the reaction products were decolored, deionized, concentrated and subjected to column fractionation using a strongly-acidic cation exchanger in alkali-metal form ("XT-1016", Na^+ form, 4% cross-linking degree, a product of Tokyo Organic Chemical Industries, Ltd., Tokyo, Japan). More particularly, the cation exchanger was packed in 3 jacketed stainless steel columns, inner diameter of 2.0 cm, length of 1 m each, cascaded in series, which were then loaded with either reaction product in an amount of 5 v/v % to the volume of the cation exchanger and then applied with 55° C. water at an SV (space velocity) 0.13 for fractionation, and fractions containing 97% or more newly formed saccharides were collected. The obtained fractions were separately lyophilized into high-purity saccharide preparations. The yields against particular material substrates were about 9% for PI, about 65% for PII, about 82% for PIII, about 80% for PIV and about 77% for PV, and the final purities were 97.5% for PI, 98.6% for PII, 99.5% for PIII, 98.4% for PIV and 98.4% for PV.
# These high-purity saccharide preparations were tested for their reducing powers with the Somogyi-Nelson method and their reducing powers were represented in terms of DE (dextrose equivalent).
DE [4],Structure (SMILES),Water content ([1]; 0 hour) [%],Water content ([1]; 2 hours) [%],Water content ([1]; 8 hours) [%],Water content ([1]; 24 hours) [%],Hygroscopicity and appearance [1],also measured
–,"OC[C@H]1O[C@H](O[C@H]2O[C@H](CO)[C@@H](O[C@H]3O[C@H](CO)[C@@H](O)[C@H](O)[C@H]3O)[C@H](O)[C@H]2O)[C@H](O)[C@@H](O)[C@@H]1O [Amorphous crystal, O-α-D-glucopyranosyl-(→4)-α-D-glucopyranosyl α-D-glucopyranoside]",0.5,6.3,17.4,20.0,"very hygroscopic, readily solidified, and free flowing",–
–,"OC[C@H]1O[C@H](O[C@H]2O[C@H](CO)[C@@H](O[C@H]3O[C@H](CO)[C@@H](O)[C@H](O)[C@H]3O)[C@H](O)[C@H]2O)[C@H](O)[C@@H](O)[C@@H]1O [Anhydrous crystal, O-α-D-glucopyranosyl-(→4)-α-D-glucopyranosyl α-D-glucopyranoside]",0.3,10.3,10.4,10.5,"hygroscopic, however, had no change of appearance and retained free-flowing ability",Solubility (as anhydride) (Solubility in water): about 163 g/100 ml; LD50 (mice): ≥ 50000 mg/kg; mortality (mice): no mouse died
–,OC[C@H]1O[C@H](O[C@H]2O[C@H](CO)[C@@H](O[C@H]3O[C@H](CO)[C@@H](O)[C@H](O)[C@H]3O)[C@H](O)[C@H]2O)[C@H](O)[C@@H](O)[C@@H]1O [Example A-1],–,–,–,–,–,"hygroscopicity ([2]; in words, product of the Example): substantially no hygroscopicity"
–,OC[C@H]1O[C@H](O[C@H]2O[C@H](CO)[C@@H](O[C@H]3O[C@H](CO)[C@@H](O)[C@H](O)[C@H]3O)[C@H](O)[C@H]2O)[C@H](O)[C@@H](O)[C@@H]1O [Example A-5],–,–,–,–,–,water content after standing in a room ([2]; anhydrous crystal converted into hydrous crystal): about 10%
–,"OC[C@H]1O[C@H](O[C@H]2O[C@H](CO)[C@@H](O[C@H]3O[C@H](CO)[C@@H](O)[C@H](O)[C@H]3O)[C@H](O)[C@H]2O)[C@H](O)[C@@H](O)[C@@H]1O [Hydrous crystal, O-α-D-glucopyranosyl-(→4)-α-D-glucopyranosyl α-D-glucopyranoside]",9.9,10.4,10.5,10.5,"less hygroscopic, free flowing, and readily handleable",solubility (Solubility in water; read-out: Solubility (as anhydride)): ~1630 mg/mL; LD50 [3]: ≥ 50000 mg/kg; mortality (mice): no mouse died
0.35,"OC[C@H]1O[C@H](O[C@H]2O[C@H](CO)[C@@H](O[C@H]3O[C@H](CO)[C@@H](O[C@H]4O[C@H](CO)[C@@H](O)[C@H](O)[C@H]4O)[C@H](O)[C@H]3O)[C@H](O)[C@H]2O)[C@H](O)[C@@H](O)[C@@H]1O [PII, α-maltotriosyl glucoside]",–,–,–,–,–,–
0.10,"OC[C@H]1O[C@H](O[C@H]2O[C@H](CO)[C@@H](O[C@H]3O[C@H](CO)[C@@H](O[C@H]4O[C@H](CO)[C@@H](O[C@H]5O[C@H](CO)[C@@H](O)[C@H](O)[C@H]5O)[C@H](O)[C@H]4O)[C@H](O)[C@H]3O)[C@H](O)[C@H]2O)[C@H](O)[C@@H](O)[C@@H]1O [PIII, α-maltotetraosyl glucoside]",–,–,–,–,–,–
0.27,"OC[C@H]1O[C@H](O[C@H]2O[C@H](CO)[C@@H](O[C@H]3O[C@H](CO)[C@@H](O[C@H]4O[C@H](CO)[C@@H](O[C@H]5O[C@H](CO)[C@@H](O[C@H]6O[C@H](CO)[C@@H](O)[C@H](O)[C@H]6O)[C@H](O)[C@H]5O)[C@H](O)[C@H]4O)[C@H](O)[C@H]3O)[C@H](O)[C@H]2O)[C@H](O)[C@@H](O)[C@@H]1O [PIV, α-maltopentaosyl glucoside]",–,–,–,–,–,–
0.23,"OC[C@H]1O[C@H](O[C@H]2O[C@H](CO)[C@@H](O[C@H]3O[C@H](CO)[C@@H](O[C@H]4O[C@H](CO)[C@@H](O[C@H]5O[C@H](CO)[C@@H](O[C@H]6O[C@H](CO)[C@@H](O[C@H]7O[C@H](CO)[C@@H](O)[C@H](O)[C@H]7O)[C@H](O)[C@H]6O)[C@H](O)[C@H]5O)[C@H](O)[C@H]4O)[C@H](O)[C@H]3O)[C@H](O)[C@H]2O)[C@H](O)[C@@H](O)[C@@H]1O [PV, α-maltohexaosyl glucoside]",–,–,–,–,–,–

Structure (SMILES),DE [4],Water content ([1]; 0 hour) [%],Water content ([1]; 2 hours) [%],Water content ([1]; 8 hours) [%],Water content ([1]; 24 hours) [%],Hygroscopicity and appearance [1],also measured
"OC[C@H]1O[C@H](O[C@H]2O[C@H](CO)[C@@H](O[C@H]3O[C@H](CO)[C@@H](O)[C@H](O)[C@H]3O)[C@H](O)[C@H]2O)[C@H](O)[C@@H](O)[C@@H]1O [PI, α-maltosyl glucoside]",0.83,–,–,–,–,–,–
